Here are results for 13 molecules from paper PMC13183915, “A platinum butterfly effect: small changes turn an anticancer drug into a non-toxic metalloantibiotic with in vivo efficacy” (npj Antimicrobials and Resistance, 2026).

Assay [1] concerns E. coli (NCTC 13476). The assay is described as follows: MIC, E. coli NCTC 13476 (with or without PMBN). The class given is cell-based.
Assay [2] concerns S. aureus (CCUG 62707). Kind of assay: MIC of COD ligand and Pt precursor, S. aureus CCUG 62707. Format: cell-based.
Assay [3] has as its system methicillin-sensitive Staphylococcus aureus (MSSA), clinical isolate. The assay is described as follows: MIC assay, MSSA clinical isolate. The class given is cell-based. To be noted: MSSA clinical isolate.
Assay [4] concerns methicillin-resistant S. aureus (MRSA) COL. The assay is described as follows: MIC assay, MRSA COL. To be noted: MRSA COL. Format: cell-based, Staphylococcus aureus.
The test system of assay [5] is Escherichia coli W3110. The assay is described as follows: MIC assay, E. coli. To be noted: E. coli, Table S2. Format: cell-based.
In assay [6] the test system is Bacillus subtilis MW168. The assay is described as follows: MIC assay, B. subtilis MW168. To be noted: B. subtilis MW168. The class given is cell-based.
Assay [7] deals with S. aureus ATCC 29213. Kind of assay: Drug interaction study (chequerboard assay). The class given is cell-based. To be noted: for MIC: Staphylococcus aureus, ATCC29213; for FIC B: antibiotic in combination with Pt1 / alone; for FIC (FICA+FICB) / Interference: combination with Pt1; for Interference: synergistic ≤0.5, indifferent >0.5 to 4, antagonistic >4. How it is done: All compounds were freshly prepared for the experiment. […] Following incubation, the fractional inhibitory concentration index (FICI) was calculated with the formula FICI = […], whereby FICA = MIC of drug A in combination/MIC of drug A alone and FICB = MIC of drug B in combination/MIC of drug B alone. A drug combination is considered synergistic when ∑FICI is ≤0.5, indifferent when ∑FICI is >0.5 to 4, and antagonistic when ∑FICI is >4.

For assay [8], the system named is MSSA ATCC 29213. The assay is described as follows: Broth microdilution MIC, MSSA ATCC 29213. To be noted: Staphylococcus aureus. The class given is cell-based, S. aureus. The method, then: The data is given in supporting information (Table S5). Before starting the experiment, a single colony was picked from MHA plate, inoculated in MHBII and incubated overnight at 37 °C with shaking for 18–24 h to get the starter culture. Antibiotic susceptibility testing was conducted according to the CLSI (Clinical & Laboratory Standards Institute) guidelines using the broth microdilution assay. 10 mg/mL stock solutions of test compounds were prepared in DMSO. Bacterial cultures were inoculated in MHBII and optical density (OD) was measured at 600 nm, followed by dilution to achieve ~10^6 CFU/mL. The compounds were tested from 64 to 0.5 mg/L in two-fold serial diluted fashion with 2.5 μL of each concentration added to well of a 96-well round bottom microtiter plate. Later, 97.5 μL of bacterial suspension was added to each well containing either test compound or appropriate controls. […] The MIC is defined as the lowest concentration of the compound at which there is absence of visible growth. For each test compound, MIC determinations were carried out independently three times using duplicate samples.
Background: In broth dilution the organism is exposed to a series of concentrations in liquid medium.

For assay [9], the system named is 36th Passage S.aureus ATCC 29213 in the presence of Pt-1. The assay is described as follows: microbe, parasite or virus in culture. The class given is cell-based. To be noted: Staphylococcus aureus, ATCC29213. How it is done:
(§1) The MICs of the passaged cultures were determined every 3 days and compared to that of wild type S. aureus ATCC 29213. MIC changes were recorded for 36 passages.

Assay [10] concerns S. aureus ATCC 29213. The assay is described as follows: Post antibiotic effect (PAE). The class given is cell-based. To be noted: for Time for 1 log10 increase in bacterial cfu count: 1 h exposure. How it is done: Post antibiotic effect (PAE) was determined as follows. […] Following incubation, cultures were centrifuged and washed twice with pre-warmed MHBII to remove any traces of antibiotics. Finally, cells were resuspended in drug-free MHBII and incubated further at 37 °C. Samples were taken every 1 h, serially diluted, and plated on tryptic soy agar (TSA) for enumeration of CFU. […] CFU observed immediately after the removal of the drug, and C in a similarly treated drug-free control.

Assay [11] deals with 36th Passage S.aureus ATCC 29213 in the presence of Levofloxacin. Kind of assay: Antibiogram of strain passaged with levofloxacin. Format: cell-based. To be noted: Staphylococcus aureus, ATCC29213. The method, then: as §1
For assay [12], the system named is B. subtilis 168CA. The assay is described as follows: ROS scavenger assay (modified MIC assay). Format: cell-based, Bacillus subtilis. How it is done:
LB media were prepared to contain either 10 mM tiron, 150 mM thiourea, 10 mM tiron and 150 mM thiourea, or no […]. Serial two-fold dilutions of the different antibiotics were prepared in the respective media and transferred to 96-well plates. […] The OD600 was meassured in a BMG Clariostar Plus plate reader.

Where [13] appears, read: compound alone, Table S8, read-out: MIC.
Setting [14] is: S.aureus ATCC 29213 (unpassaged), Table S9, read-out: MIC.

In brackets after ≈: the same amount, converted by molar mass. Read-outs that look alike come from different tables or passages of the source. Bounds are passed on as bounds.

`C1=CCCC=CCC1` [1,5-Cyclooctadiene, 1,5-cyclooctadiene]: the MIC in assay [1] (Escherichia coli, NCTC13476) is greater than 200 µM; in assay [2] (Staphylococcus aureus, CCUG62707), greater than 200 µM.
For the molecule `N.N.O=C([O-])C1(C(=O)[O-])CCC1.[Pt+2]` [Carboplatin], the MIC in assay [3], in [4], in [5] and in assay [6] was greater than 100 µM in each case.
As for `CC(C)(O/N=C(\C(=O)N[C@@H]1C(=O)N2C(C(=O)[O-])=C(C[n+]3ccccc3)CS[C@H]12)c1csc(N)n1)C(=O)O` [Ceftazidime], the MIC in [7] (setting [13]) stood at 16 µg/mL. Further, in [7], the “FIC B” value is 1, the “FIC (FICA+FICB)” value is recorded as 2 and the Interference entry is reported as “no interaction”. Moreover, the MIC in [8] (setting [14]) stood at 16 µg/mL (≈ 29.3 µM). Further, in assay [9], the MIC was 16 µg/mL (≈ 29.3 µM).
Regarding `CCCCCCCCCC(=O)N[C@@H](Cc1c[nH]c2ccccc12)C(=O)N[C@H](CC(N)=O)C(=O)N[C@@H](CC(=O)O)C(=O)N[C@@H]1C(=O)NCC(=O)N[C@@H](CCCN)C(=O)N[C@@H](CC(=O)O)C(=O)N[C@H](C)C(=O)N[C@@H](CC(=O)O)C(=O)NCC(=O)N[C@H](CO)C(=O)N[C@@H]([C@H](C)CC(=O)O)C(=O)N[C@@H](CC(=O)c2ccccc2N)C(=O)O[C@@H]1C` [Daptomycin], the MIC stood at 1 µg/mL in [7] (setting [13]), 1 µg/mL (≈ 0.617 µM) in [8] (setting [14]) and 1 µg/mL (≈ 0.617 µM) in [9]. The “FIC B” value in [7] is 1. Besides, the “FIC (FICA+FICB)” value in [7] amounted to 2. Besides, the Interference entry in assay [7] is “no interaction”.
On to `CNC(C)C1CCC(N)C(OC2C(N)CC(N)C(OC3OCC(C)(O)C(NC)C3O)C2O)O1` (stereo not drawn) [Gentamicin], for which, in assay [7] (setting [13]), the MIC turned out to be 0.25 µg/mL. In [7], the “FIC B” value worked out at 1, the “FIC (FICA+FICB)” value was 2 and the Interference result is listed as “no interaction”. For the same molecule, the MIC in assay [8] (setting [14]) was determined as 0.25 µg/mL (≈ 0.523 µM). The MIC in [9] is 0.5 µg/mL (≈ 1.05 µM).
In the case of `C[C@H]1COc2c(N3CCN(C)CC3)c(F)cc3c(=O)c(C(=O)O)cn1c23` [Levofloxacin], the PAE in assay [10] (1x MIC) was ~ 0.5 h; in assay [10] (5x MIC), ~ 1.5 h; in assay [10] (10x MIC), ~ 1.5 h; in assay [10] (10x MIC, listed as levofloxacin), 1.5 h. Besides, the “Time for 1 log10 increase in bacterial cfu count” value in assay [10] (1x MIC) is on record as ~ 3 h; in [10] (5x MIC) it was ~ 4 h; in assay [10] (10x MIC) it was ~ 4 h. Besides, the MIC in [11] amounted to 32 µg/mL (≈ 88.6 µM); in assay [7] (setting [13]), 0.25 µg/mL; in [8] (setting [14]), 0.25 µg/mL (≈ 0.692 µM); in [9] it was 0.25 µg/mL (≈ 0.692 µM). The “FIC B” value in assay [7] worked out at 1. For the same molecule, in assay [7], the “FIC (FICA+FICB)” value is listed as 2. Moreover, in [7], the Interference entry was “no interaction”.
As for `CC(=O)NC[C@H]1CN(c2ccc(N3CCOCC3)c(F)c2)C(=O)O1` [Linezolid], the MIC in assay [7] (setting [13]) came out at 2 µg/mL; in assay [8] (setting [14]), 2 µg/mL (≈ 5.93 µM); in assay [9], 2 µg/mL (≈ 5.93 µM). Further, the “FIC B” value in [7] is reported as 1. In addition, the “FIC (FICA+FICB)” value in assay [7] amounted to 2. Further, the Interference entry in assay [7] is given as “no interaction”.
Turning to `C[C@@H](O)[C@H]1C(=O)N2C(C(=O)O)=C(S[C@@H]3CN[C@H](C(=O)N(C)C)C3)[C@H](C)[C@H]12` [Meropenem], the MIC in assay [11] came out at 0.125 µg/mL (≈ 0.326 µM); in assay [7] (setting [13]) it was 0.25 µg/mL; in assay [8] (setting [14]), 0.25 µg/mL (≈ 0.652 µM); in assay [9], 0.25 µg/mL (≈ 0.652 µM). Moreover, the “FIC B” value in assay [7] was 1. In assay [7], the “FIC (FICA+FICB)” value was determined as 2. In addition, the Interference result in [7] is “no interaction”.
As to `CN(C)c1ccc(O)c2c1C[C@H]1C[C@H]3[C@H](N(C)C)C(O)=C(C(N)=O)C(=O)[C@@]3(O)C(O)=C1C2=O` [Minocycline], in assay [7], the MIC was determined as 0.125 µg/mL, the “FIC B” value is 1, the “FIC (FICA+FICB)” value was 2 and the Interference result is “no interaction”. The molecule further came in with an MIC in assay [8] of 0.0625 µg/mL (≈ 0.137 µM). Moreover, the MIC in assay [9] worked out at 0.125 µg/mL (≈ 0.273 µM).
In the case of `O=C1[O][Pt]2([NH][C@@H]3CCCC[C@H]3[NH]2)[O]C1=O` [Oxaliplatin], the MIC in assay [3], in assay [4], in [5] and in assay [6] was greater than 100 µM in each case.
As to `[Cl][Pt-2]([Cl])([Cl])[Cl].[K+].[K+]` [Pt K2PtCl4, K2PtCl4], the MIC in [1] (E. coli NCTC 13476) and in assay [2] (S. aureus CCUG 62707) was greater than 200 µM each time.
Take `CO[C@H]1/C=C/O[C@@]2(C)Oc3c(C)c(O)c4c(O)c(c(/C=N/N5CCN(C)CC5)c(O)c4c3C2=O)NC(=O)/C(C)=C\C=C\[C@H](C)[C@H](O)[C@@H](C)[C@@H](O)[C@@H](C)[C@H](OC(C)=O)[C@@H]1C` [Rifampicin]: the MIC in assay [7] (setting [13]) was determined as 0.0078 µg/mL. In [7], the “FIC B” value is given as 1, the “FIC (FICA+FICB)” value stood at 2 and the Interference entry is recorded as “no interaction”. In assay [8], this molecule had an MIC of 0.0156 µg/mL (≈ 0.019 µM). Besides, in [9], the MIC was determined as 0.0156 µg/mL (≈ 0.019 µM).
For the molecule `OO` [hydrogen peroxide], the “MIC fold change (increase) with scavenger” value in assay [12] (medium containing 10 mM tiron (superoxide scavenger)) is listed as “not significantly affected”; in assay [12] (medium containing 150 mM thiourea (hydroxyl radical scavenger)) it was 14 fold. In assay [12] (medium containing both tiron and thiourea), the “MIC fold change (increase) with scavengers” value is given as “no additive effect”.
